The values that follow come from patent US9907857B2, “Peptide having cell membrane penetrating activity” (EWHA UNIVERSITY-INDUSTRY COLLABORATION FOUNDATION, priority 2006, dated 2018).

Holding throughout (format): cell-based
For experiment [1], the system named is HeLa cells. In words: Intracellular translocation of alanine substituents of TCTP(1-9), microplate fluorescence reader. To be noted: for decline in uptake, fluorescence intensity of TCTP (1-9) at 100 μM set to 100%: sensitivity 75 (FIG. 5); for penetrating activity of alanine substituents compared with WT TCTP(1-9): HeLa. The procedure:
N-terminus of each peptide was labeled with fluorescence dye, rhodamine and C-terminus was protected. Peptide purity (>95%) was determined by HPLC. Synthesis of peptides of present invention was requested to PEPTRON, Inc.
HeLa cell line was propagated in DMEM supplemented with 10% FBS and 100 units/mL penicillin-streptomycin. Cells were grown in a 5% CO2 incubator at 37° C.
HeLa cells were cultured in 48-well plate until they were 70˜80% grown up before a day of the experiment. The cells were washed with DMEM of 37° C. twice, and TCTP-derived peptides synthesized in Example 4-1) were treated to the culture medium in a dose dependent manner (0, 1, 10, 100 μM), then the cells was incubated for 15 minutes or 2 hours in an CO2 incubator at 37° C.
After the incubation, the cells were washed in cool PBS three times and immediately measured by a microplate fluorescence reader at emission 530 nm and excitation 590 nm for a measurement of rhodamine of intracellular uptake marker. The sensitivity of reader was set at 100 as a basic, but was lowered to 75 if fluorescent signals were strong. All experiments were conducted in triplet repeats for reproducibility (FIG. 5 and FIG. 6).
Meanwhile, when the sensitivity of KC4 plate reader was set down to 75, we could not analyze the result of cell penetrating activity at relatively low concentration of 1 or 10 μM, so sensitivity of reader was fixed at 100 (FIG. 6). At this time, because fluorescence intensity at 100 μM was very strong, we could not express in a same graph.

Experiment [2] has as its system HeLa cells. In words: Cell penetrating efficiency of rhodamine-labelled TCTP-derived peptides, microplate fluorescence reader. To be noted: for intracellular translocation, dependence on concentration: 0-100 μM, 15 minutes or 2 hours; for efficiency versus control peptide TAT at low concentration: 1 μM and 10 μM; for cell penetrating activity / translocation efficiency in comparison with TAT (words): HeLa, rhodamine-labelled peptides, overall. Here is the method:
N-terminus of each peptides was labeled with fluorescence dye, rhodamine and C-terminus was protected. Peptide purity (>95%) was determined by HPLC. Synthesis of the peptides was requested to PEPTRON, Inc.
HeLa cell line (ATCC) was propagated in DMEM (GIBCO) supplemented with 10% FBS (GIBCO) and 100 units/mL penicillin-streptomycin. Cells were grown in a 5% CO2 incubator at 37° C.
HeLa cells were cultured in 48-well plate until they were 70˜80% grown up before a day of the experiment. The cells were washed with DMEM of 37° C. twice, and TCTP-derived peptides synthesized in Example 2-1) were treated to the culture medium in a dose dependent manner (0, 1, 5, 10, 50, 100 μM), then the cells was incubated for 15 minutes or 2 hours in an CO2 incubator at 37° C.
After the incubation, the cells were washed in cool PBS three times and immediately measured by a microplate fluorescence reader (BIO-TEK instruments, Inc., Vermont, USA) at emission 530 nm and excitation 590 nm for a measurement of rhodamine of intracellular uptake marker. The sensitivity of reader was set at 100 as a basic mode, but was lowered to 75 if the fluorescent signals were too strong. All experiments were conducted in triplet repeats for reproducibility (FIG. 2 and FIG. 3).

The subject of experiment [3] is HeLa cells. In words: Intracellular translocation of TCTP-derived peptide by fluorescence microscope. To be noted: 2 hours. The procedure: HeLa cells were treated with TCTP (1-9)(SEQ ID No.: 2) at a concentration of 10 μM and 100 μM by the same method of Example 2-2). […] After washing, cells on cover glass attached slide glass were observed (FIG. 4).
Another experiment has as its system BEAS-2B cell. In words: Cellular uptake of deletion forms of TCTP, western blot of supernatant and lysate. To be noted: 15 ug/ml. Here is the method: To overexpress each of those deletion forms of TCTP (FIGS. 1a and 1c), pRSET vector that is capable of tagging 6 histidine was employed. Subcloning with DNA sequences corresponding to each deletion forms of TCTP was performed in the multicloning site of the vector. Then, the recombinant expression vector was introduced into E. coli BL21(DE3)(Novagen) or BL21(DE3)pLysS (Novagen). The expression of the deletion forms of TCTP was induced by IPTG (isopropyl (-D-thiogalactoside) for 3 hours, then the protein was isolated and purified by using Ni column which binds to polyhistidine.
BEAS-2B cell was treated with the deletion form of TCTP at the concentration of 15 ug/ml with anti-TCTP antibodies (FIG. 1b).
In addition, it was examined whether TCTP proteins of the present invention could be transferred to cellular interior for a short time, 5 minutes or 30 minutes. The experiment was performed by same method as the above (FIG. 1d).
For orientation: In western blotting, separated proteins are transferred to a membrane and probed.

As for “MIIYADLIS (mutant peptide based on human sequence; (1)..(9) TCTP(1-9)R5A) [SEQ ID No.: 12]”, in the experiment on HeLa cells [1] (2 hours), the “decline in uptake, fluorescence intensity of TCTP (1-9) at 100 μM set to 100%” value (“decline in uptake … to 100%” below) is recorded as “about 50%”. For the same molecule, the “penetrating activity of alanine substituents compared with WT TCTP(1-9)” value with HeLa cells [1] was “still maintained in translocation activity”.
As for “MIIYRALIS (mutant peptide based on human sequence; (1)..(9) TCTP(1-9)D6A) [SEQ ID No.: 13]”, the “penetrating activity, fluorescence intensity of TCTP (1-9) at 10 μM set to 1” value with HeLa cells [1] (10 μM, 2 hours, sensitivity 100 (FIG. 6)) stood at 2.5 times. Moreover, in the experiment on HeLa cells [1] (2 hours), the “decline in uptake … to 100%” value is “about 50%”. For the same molecule, the “penetrating activity of alanine substituents compared with WT TCTP(1-9)” value in the experiment with HeLa cells [1] was “still maintained in translocation activity”.
With MIIYRDLAS [SEQ ID No.: 14], the “decline in uptake … to 100%” value in the experiment on HeLa cells [1] (2 hours) is recorded as “about 50%”.
With “MIIYRDLAS [SEQ ID No.: 15] (mutant peptide based on human sequence; (1)..(9) TCTP(1-9)I8A)”, in the experiment on HeLa cells [1] (2 hours), the “decline in uptake … to 100%” value is “about 50%”.
As for “MIIYRDLI ((1)..(8) 1-8 amino acid residue of TCTP; listed as Homo sapiens) [SEQ ID No.: 3, Residues of TCTP(1-8)]”, the “intracellular translocation, dependence on concentration” value (“intracellular translocation, dependence” for short) in the experiment on HeLa cells [2] was “translocated not in 1-10 μM but in 50-100 μM”. In addition, in the experiment with HeLa cells [2], the “efficiency versus control peptide TAT at low concentration” value (from here on “efficiency versus control peptide TAT”) is “lower efficiency than control peptide, TAT”. The “cell penetrating activity / translocation efficiency in comparison with TAT (words)” value in the experiment on HeLa cells [2] is listed as “excellent cell penetrating activity in comparison with conventional TAT”; with HeLa cells [2] (listed as TCTP (1-8)) it was “superior ability than well-known PTD, TAT in their translocation efficiency”; in the experiment with HeLa cells [2] (listed as TCTP(1-8)), “more excellent penetrating activity than well-known TAT(47-58) peptide”.
On to “MIIYRDLIA (mutant peptide based on human sequence; (1)..(9) TCTP(1-9)S9A) [SEQ ID No.: 16]”, for which the “decline in uptake … to 100%” value with HeLa cells [1] (2 hours) is “about 50%”. For the same molecule, in the experiment on HeLa cells [1], the “penetrating activity of alanine substituents compared with WT TCTP(1-9)” value was “still maintained in translocation activity”.
On to “MIIYRDLIS ((1)..(9) 1-9 amino acid residue of TCTP; listed as Homo sapiens) [SEQ ID No.: 2, Residues of TCTP(1-9)]”, for which the “intracellular translocation, dependence” value with HeLa cells [2] is “translocated not in 1-10 μM but in 50-100 μM”. The “efficiency versus control peptide TAT” value with HeLa cells [2] is listed as “lower efficiency than control peptide, TAT”. Also, the “cell penetrating activity / translocation efficiency in comparison with TAT (words)” value is given as “excellent cell penetrating activity in comparison with conventional TAT” in the experiment on HeLa cells [2]; “superior ability than well-known PTD, TAT in their translocation efficiency” in the experiment with HeLa cells [2] (listed as TCTP (1-9)); “more excellent penetrating activity than well-known TAT(47-58) peptide” in the experiment on HeLa cells [2] (listed as TCTP(1-9)). Besides, the “intracellular translocation (fluorescence microscope)” value in the experiment with HeLa cells [3] (10 μM) is reported as “weakly translocated”; with HeLa cells [3] (100 μM) it was “strongly”. Also, the “intracellular distribution (fluorescence microscope)” value with HeLa cells [3] (HeLa) is “distributed widely in cytoplasm and nucleus of the cell”.
With “MIIYRDLISH ((1)..(10) 1-10 amino acid residue of TCTP; listed as Homo sapiens) [SEQ ID No.: 1, Residues of TCTP(1-10)]”, the “intracellular translocation, dependence” value in the experiment with HeLa cells [2] is on record as “translocated not in 1-10 μM but in 50-100 μM”. Further, the “efficiency versus control peptide TAT” value with HeLa cells [2] is “lower efficiency than control peptide, TAT”. In addition, in the experiment on HeLa cells [2] (50 μM (FIGS. 2 & 3)), the “cell penetrating activity, SEQ ID No.: 1 versus SEQ ID No.: 2” value is listed as “more effective than SEQ ID No.: 2”. The “concentration at which translocation was saturated” value in the experiment on HeLa cells [2] (2 hour treatment (FIG. 3)) amounted to 50 µM. Moreover, the “cell penetrating activity / translocation efficiency in comparison with TAT (words)” value in the experiment on HeLa cells [2] was “excellent cell penetrating activity in comparison with conventional TAT”; in the experiment with HeLa cells [2] (listed as TCTP (1-10)), “superior ability than well-known PTD, TAT in their translocation efficiency”. Further, the “cell penetrating activity compared to that of TAT” value with HeLa cells [2] (treated for 15 minutes in 50 μM) is recorded as “over 3 times”; in the experiment on HeLa cells [2] (treated for 15 minutes in 100 μM), 6 times; with HeLa cells [2] (treatment for 2 hours, 50 μM), “about 29 times”; in the experiment with HeLa cells [2] (treatment for 2 hours, 100 μM) it was about 30 times.

B1: full length TCTP: translationally controlled tumor protein, 172 amino acids, expressed with 6 histidine tag in E. coli (protein, UniProt P13693 1-172, looked up)
chain: MIIYRDLISHDEMFSDIYKIREIADGLCLEVEGKMVSRTEGNIDDSLIGGNASAEGPEGEGTESTVITGVDIVMNHHLQETSFTKEAYKKYIKDYMKSIKGKLEEQRPERVKPFMTGAAEQIKHILANFKNYQFFIGENMNPDGMVALLDYREDGVTPYMIFFKDGLEMEKC
modifications: full-length
For the molecule B1, the “protein in cell supernatant (western blot, anti-TCTP antibodies)” value is “disappeared 24 hours later” with BEAS-2B cell (24 hours later) and “existed in cell supernatants” in the experiment with BEAS-2B cell (incubation for 1 hour).
